# In US7112333B1, “T cell epitopes of ryegrass pollen allergen” (Heska Corporation, priority 1994, dated 2006):
# Tested on: Lol p V reactive T Cells
# Assay: T cell proliferation (tritiated thymidine) of Lol p V-primed T cell lines from grass-allergic patients
# Format: cell-based, human
# From the text: As discussed in Example 2, human T cell stimulating activity can be tested by culturing T cells obtained from an individual sensitive to Lol p V allergen, (i.e., an individual who has an IgE mediated immune response to Lol p V allergen) with a peptide derived from the allergen and determining whether proliferation of T cells occurs in response to the peptide as measured, e.g., by cellular uptake of tritiated thymidine. Stimulation indices for responses by T cells to peptides can be calculated as the maximum CPM in response to a peptide divided by the control CPM. A stimulation index (S.I.) equal to or greater than two times the background level is considered “positive”. Positive results are used to calculate the mean stimulation index for each peptide for the group of patients tested. In FIGS. 4 and 5 the mean T cell stimulation index is indicated above the bar. Preferred peptides of this invention comprise at least one T cell epitope and have a mean T cell stimulation index of greater than or equal to 2.0. […]
# In addition, preferred peptides have a positivity index (P.I.) of at least about 60, more preferably about 100, more preferably at least about 200 and most preferably at least about 300. The positivity index for a peptide is determined by multiplying the mean T cell stimulation index by the percent of individuals, in a population of individuals sensitive to ryegrass pollen (e.g., preferably a population of at least 15 individuals, more preferably a population of at least 30 individuals or more), who have a T cell stimulation index to such peptide of at least 2.0. […]
# In FIG. 5, the bar represents the cumulative rank of the peptide response in the group of patients tested as described in Example 2. To determine the cumulative rank, the 5 peptides with the highest S.I. in each individual were determined and assigned a numerical rank in descending order, with 5 representing the strongest response. […]
# This amount of priming antigen was determined to be optimal for the activation of T cells from most grass-allergic patients. […]
substance,measurement,setting,value
"LPIX-5: synthetic overlapping peptide derived from Lol p V, sequence in FIG. 2 (GFKAAVAAAANAPPADKFKI; Lolium perenne)",percent of positive responses (patients with S.I. of at least 2),"group of 19 patients tested, FIG. 4",26.3%
"LPIX-20: synthetic overlapping peptide derived from Lol p V, sequence in FIG. 2 (AYETYKFIPSLEAAVKQAYA; Lolium perenne)",ranked sum (cumulative rank of the peptide response),"19 patients, 5 peptides with highest S.I. per individual ranked, ranks summed, FIG. 5",highest ranked sum
"rFel d I (Chain I): recombinant Fel d I chain I, control antigen in T cell assay [reference compound]",T cell proliferative response of one patient,"one allergic patient, results not shown",not
